Source: patent US6524584B2, “Saponin compositions and uses thereof” (priority 1996, dated 2003)

Columns and labels:
[1] = system: ovalbumin; settings: at 2.5 μg or lower, mice; cited from earlier work
[2] = system: bovine serum albumin and cytochrome b5; settings: mice; cited from earlier work
[3] = system: ovalbumin; settings: doses below 2.5 μg, mice; cited from earlier work
[4] = system: ovalbumin; test: Serum anti-ovalbumin antibody response by enzyme immunoassay after immunization; format: in vivo, C57BL/6 mice; settings: saponin dose 0.625 μg, alone
Procedure: (§1) All experiments were carried out in C57BL/6 mice (female, 8-12 weeks of age). The synergistic adjuvant-effect of the QS-21/QS-7 mixtures was assessed by two parameters: (1) the ability of these mixtures to improve antibody titers to a subunit antigen, ovalbumin, in mice; and (2) the ability of these mixtures to improve an ovalbumin-specific cytotoxic T lymphocyte (killer cell) response in mice.
The experimental techniques were the following. The mice were immunized subcutaneously at week 1, 3, and 5 with 0.2 ml of the indicated formulations in phosphate-buffered saline. Mice were immunized in groups of five. Sera and spleens were harvested at weeks 7 to 9. Sera was assayed for anti-ovalbumin antibody response by enzyme immunoassay. Briefly, a 96 well Immulon plate was coated with 10 μg/ml ovalbumin in phosphate-buffered saline (PBS) overnight at 4° C. These plates were blocked with 10% normal goat serum in PBS (diluent) for one hour at room temperature. Serial 1:10 dilutions of serum were made in diluent and were incubated on the plates for one hour at room temperature or overnight at 4° C. An enzyme conjugate of anti-mouse IgG (or anti-mouse IgG subclass) was diluted in diluent and incubated on the plate. A calorimetric enzyme substrate, tetramethylbenzidine, was used to assay for binding of anti-ovalbumin antibody. […]

[5] = system: E.G7-OVA target cells; test: Cytotoxic T-lymphocyte (CTL) assay, 51Cr release, splenic effector cells from immunized mice; format: in vivo, C57BL/6 mice; settings: s.c. with ovalbumin, weeks 1, 3, 5
Procedure: as §1
The experimental techniques were the following. The mice were immunized subcutaneously at week 1, 3, and 5 with 0.2 ml of the indicated formulations in phosphate-buffered saline. Mice were immunized in groups of five. Sera and spleens were harvested at weeks 7 to 9. Sera was assayed for anti-ovalbumin antibody response by enzyme immunoassay. Briefly, a 96 well Immulon plate was coated with 10 μg/ml ovalbumin in phosphate-buffered saline (PBS) overnight at 4° C. These plates were blocked with 10% normal goat serum in PBS (diluent) for one hour at room temperature. Serial 1:10 dilutions of serum were made in diluent and were incubated on the plates for one hour at room temperature or overnight at 4° C. An enzyme conjugate of anti-mouse IgG (or anti-mouse IgG subclass) was diluted in diluent and incubated on the plate. A calorimetric enzyme substrate, tetramethylbenzidine, was used to assay for binding of anti-ovalbumin antibody. Spleens from immunized mice were used to assay for the cytotoxic T lymphocyte (CTL) response. The effector cells for the (CTL) assay were splenic mononuclear cells from the harvested spleens. The antigen-positive target cells for the assay were E.G7-OVA cells, which are an MHC class II antigen-negative EL4 mouse cell line, transfected with the ovalbumin gene. […] EL4 cells were used as an ovalbumin-negative target cell line. Prior to assay, splenic mononuclear cells were stimulated with antigen to induce maturation of precursor CTL in the effector cell population. The antigens used for stimulation were mitomycin C treated E.G7-OVA cells (incubated with spleen cells at a ratio of 20:1 spleen cells: E.G7-OVA cells) or denatured ovalbumin (25 μg/ml). […]

[6] = system: mice; settings: mouse, in vivo; cited from earlier work
[7] = system: cytochrome b5; settings: saponin doses of 20 μg; cited from earlier work

| Substance | CTL response to ovalbumin [1] | antibody responses to bovine serum albumin and cytochrome b5 [2] | adjuvant for raising an antibody response to ovalbumin [3] | antibody titer compared with no adjuvant [4] | stimulating a CTL response ([5]; saponin dose 0.625 μg) | stimulating a CTL response ([5]; saponin dose 1.25 μg) | stimulating a CTL response ([5]; saponin dose 20 μg) | toxicity in mice [6] | IgG2a response to cytochrome b5 [7] |
| --- | --- | --- | --- | --- | --- | --- | --- | --- | --- |
| QS-21 | minimal | stimulate potent antibody responses | ineffective | neither 10 μg QS-7 or 0.625 μg QS-21, individually, yields a titer that is higher than no adjuvant | ineffective | ineffective | highly effective | least toxic | stimulate IgG2a response |
| QS-17 | – | stimulate potent antibody responses | – | – | – | – | – | – | stimulate IgG2a response |
| QS-18 | – | stimulate potent antibody responses | – | – | – | – | – | – | stimulate IgG2a response |
